Source: publication PMC6684654 (Nature Communications, 2019)
Converted amounts (≈) assume the structure as drawn. “And” between values parts separate entries of the source, which are not always exact repeats. Equal entries are not always repeated. Where two headings read alike, the source gives them in different places. Bridge positions count the residues as written; N and C are the ends. Ends that are not written are not given here.

B1: Thanatin (peptide)
peptide: GSKKPVPIIYCNRRTGKCQRM
modifications: disulfide 11-18
notes: thanatin, inducible 21-residue insect peptide; source: synthetic peptide (solid-phase, Fmoc), purified by reverse-phase HPLC to over 98%

Experiments:
[1] = system: NDM-1 K. pneumoniae XJ155017; assay: Antibiotic susceptibility (MIC), automated identification system; format: cell-based; details: Supplementary Table 2; for MIC: Klebsiella pneumoniae
Text: (§1) Clinical isolate strains were identified and screened by the Phoenix 100 automated bacterial identification system to rapidly detect antimicrobial resistance. Total DNA was extracted by the TIANamp Bacteria DNA Kit according to the manufacturer’s protocol. The presence of blaNDM-1 was confirmed using a diagnostic kit for NDM-1 (Puruikang Bio Inc., Shenzhen, China) based on fluorescent quantitative polymerase chain reaction assay. According to the instruction, Ct values of less than 37 were considered positive.

[2] = system: NDM-1 K. pneumoniae XJ155020; assay: as above; format: cell-based; details: Supplementary Table 2; for MIC: Klebsiella pneumoniae
Text: as §1

NDM-1 E. coli XJ141047 [3] = assay: as above; format: cell-based; details: Supplementary Table 1; for MIC: Escherichia coli
Text: as §1

E. coli ATCC25922 [4] = assay: as above; format: cell-based; details: Supplementary Table 1; for MIC: Escherichia coli, ATCC25922
Text: as §1

NDM-1 E. coli XJ141026 [5] = assay: as above; format: cell-based; details: Supplementary Table 1; for MIC: Escherichia coli
Text: as §1

NDM-1 E. coli XJ141015 [6] = assay: as above; format: cell-based; details: Supplementary Table 1; for MIC: Escherichia coli
Text: as §1

[7] = system: NDM-1 K. pneumoniae XJ155019; assay: as above; format: cell-based; details: Supplementary Table 2; for MIC: Klebsiella pneumoniae
Text: as §1

K. pneumoniae ATCC13883 [8] = assay: as above; format: cell-based; details: Supplementary Table 2; for MIC: Klebsiella pneumoniae, ATCC13883
Text: as §1

[9] = system: NDM-1 K. pneumoniae XJ155018; assay: as above; format: cell-based; details: Supplementary Table 2; for MIC: Klebsiella pneumoniae
Text: as §1

[10] = system: NDM-1 K. pneumoniae XJ155017; assay: MIC, broth microdilution; format: cell-based; details: Klebsiella pneumoniae, 16 h
Text: (§2) MIC values were identified through microdilution in sterilized 96-well polypropylene microtiter plates according to the broth microdilution guideline of the Clinical and Laboratory Standards Institute[30]. The test medium was Mueller–Hinton broth (MHB), and the strain concentrations were adjusted to 5 × 10^5 CFU/mL.

[11] = system: NDM-1 K. pneumoniae XJ155020; assay: MIC, broth microdilution; format: cell-based; details: Klebsiella pneumoniae, 16 h
Text: as §2

E. coli ATCC35218 = assay: MIC, broth microdilution; format: cell-based; details: Escherichia coli
Text: as §2

NDM-1 E. coli XJ141047 [12] = assay: MIC, broth microdilution; format: cell-based; details: Escherichia coli; MHB, 5 × 10^5 CFU/mL, 16 h, 37 °C; read-out: MIC
Text: as §2

E. coli ATCC25922 [13] = assay: MIC, broth microdilution; format: cell-based; details: Escherichia coli
Text: as §2

NDM-1 E. coli XJ141026 [14] = assay: MIC, broth microdilution; format: cell-based; details: Escherichia coli; MHB, 5 × 10^5 CFU/mL, 16 h, 37 °C; read-out: MIC
Text: as §2

NDM-1 E. coli XJ141015 [15] = assay: MIC, broth microdilution; format: cell-based; details: Escherichia coli; MHB, 5 × 10^5 CFU/mL, 16 h, 37 °C; read-out: MIC
Text: as §2

[16] = system: NDM-1 K. pneumoniae XJ155019; assay: MIC, broth microdilution; format: cell-based; details: Klebsiella pneumoniae, 16 h
Text: as §2

K. pneumoniae ATCC13883 [17] = assay: MIC, broth microdilution; format: cell-based; details: Klebsiella pneumoniae
Text: as §2

[18] = system: NDM-1 K. pneumoniae XJ155018; assay: MIC, broth microdilution; format: cell-based; details: Klebsiella pneumoniae, 16 h
Text: as §2

[19] = system: seven NDM-1-producing strains; assay: Checkerboard assay / FIC, summary; format: cell-based, E. coli; K. pneumoniae; details: in combination with thanatin
Protocol: (§3) Synergy in vitro was assessed by checkerboard assays. […] Following incubation, the synergistic/additive effect was determined by calculating the FIC indices (FICI) according to the formula: FICI = (MIC of A in combination/MIC of A) + (MIC of B in combination/MIC of B). The synergy or additive was defined according to standard criteria (FICI ≤ 0.5 was defined as synergistic; 0.5 < FICI ≤ 1 was defined as additive; 1 < FICI ≤ 4 was defined as indifference; FICI > 4 was defined as antagonism)[39].

NDM-1 [20] = target: T1, NDM-1 (Klebsiella pneumoniae, UniProt C7C422); details: reported Km for imipenem; ref 15 (Yuan Q, He L, Ke H, 2012); cited from earlier work
NDM-1 [21] = target: T1, NDM-1; details: NDM-1/Imipenem
Protocol: The change in absorbance at 300 nm was monitored for 30 min in 96-well plates at 30 °C. The initial rate of reaction for each inhibitor concentration was calculated from the slope of the initial linear phase of the respective time course. The IC50 value was obtained by plotting the residual enzyme activity on imipenem (%) vs. inhibitor concentration (log10). […] The best fits were obtained with the competitive inhibition model by using the equation V0 = (Vmax × [S]) / (Km × (1 + [I] / Ki) + [S]). […] The kinetics parameters Km/Vmax/Kcat were calculated by fitting the data into the double reciprocal Lineweaver–Burk plots. GraphPad 5.0 was used for data analysis.

[22] = system: NDM-1-producing E. coli XJ141026; assay: Bactericidal activity of combination treatment; format: cell-based; details: Tha 0.4 μM, alone or combined, 16 h
Protocol: The kill curves were determined as mentioned above to investigate the bactericidal activity of the combination treatment. […] CFUs were counted.

[23] = system: E. coli XJ141026-infected BALB/c mice; assay: Thanatin + meropenem in sepsis model: survival; format: in vivo, mouse (E. coli infection); details: alone or combined, single i.p. dose, n = 14
Protocol: BALB/c mice were infected intraperitoneally with 8 × 10^7 CFU of E. coli XJ141026 in 0.1 mL of MHB. […] The model group was intraperitoneally injected with an equivalent volume of PBS. […] In addition, the survival rates were detected as described above.

NDM-1 E. coli XJ141026 [24] = assay: Checkerboard assay / FIC; format: cell-based; details: Escherichia coli
Protocol: as §3

[25] = target: T2, New Delhi metallo-β-lactamase-1 (NDM-1), without signal peptide, amino-terminal histidine tag (RED-tris-NTA second-generation dye on the His-tag (in the MST assay)); assay: cell-based or functional assay
T2 chain: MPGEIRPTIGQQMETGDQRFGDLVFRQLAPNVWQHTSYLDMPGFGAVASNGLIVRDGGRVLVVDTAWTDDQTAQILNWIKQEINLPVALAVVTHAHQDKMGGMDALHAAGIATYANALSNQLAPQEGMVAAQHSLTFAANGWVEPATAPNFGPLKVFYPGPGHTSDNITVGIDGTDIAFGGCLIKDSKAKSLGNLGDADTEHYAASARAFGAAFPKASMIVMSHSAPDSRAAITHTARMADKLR

[26] = target: T2, New Delhi metallo-β-lactamase-1 …; assay: enzyme inhibition kinetics; 1 nM purified NDM-1 with 10 μM ZnSO4, pre-incubated 20 min at 30 °C with thanatin; imipenem 100-1600 μM; initial rates fitted to the competitive inhibition model; 50 mM HEPES, 0.05% Tween-20; details: both partners purified
[27] = target: T2, New Delhi metallo-β-lactamase-1 …; assay: MST; RED-tris-NTA-labelled apo-NDM-1 (100 nM, mixed 1:1) with serially diluted thanatin; 50 mM HEPES pH 6.8, 0.05% Tween-20; 30 min at room temperature; Monolith NT.115 Pico, medium MST power; details: both partners purified
[28] = MHB, 5 × 10^5 CFU/mL, 37 °C, read-out: MIC

T1 sequence (C7C422 20-270, looked up, natural form): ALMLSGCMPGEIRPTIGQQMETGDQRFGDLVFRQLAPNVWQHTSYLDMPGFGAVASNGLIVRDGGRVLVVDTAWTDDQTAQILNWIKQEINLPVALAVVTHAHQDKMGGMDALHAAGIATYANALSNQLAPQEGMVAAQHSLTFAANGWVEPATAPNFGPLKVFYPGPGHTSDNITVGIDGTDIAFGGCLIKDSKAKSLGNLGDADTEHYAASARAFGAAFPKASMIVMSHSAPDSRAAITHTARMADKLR

Row | Molecule | MIC [1] | susceptibility class (MIC) [1] | MIC [2] | susceptibility class (MIC) [2] | MIC (NDM-1 E. coli XJ141047 [3]) | susceptibility class (MIC) (NDM-1 E. coli XJ141047 [3]) | MIC (E. coli ATCC25922 [4]) | susceptibility class (MIC) (E. coli ATCC25922 [4]) | MIC (NDM-1 E. coli XJ141026 [5]) | susceptibility class (MIC) (NDM-1 E. coli XJ141026 [5]) | MIC (NDM-1 E. coli XJ141015 [6]) | susceptibility class (MIC) (NDM-1 E. coli XJ141015 [6]) | MIC [7] | susceptibility class (MIC) [7] | MIC (K. pneumoniae ATCC13883 [8]) | susceptibility class (MIC) (K. pneumoniae ATCC13883 [8]) | MIC [9] | susceptibility class (MIC) [9] | MIC [11] | MIC (NDM-1 E. coli XJ141047 [12]) | also measured
1 | C[C@@H](O)[C@H]1C(=O)N2C(C(=O)O)=C(SCCN=CN)C[C@H]12 [Imipenem] | > 8 µg/mL | R | > 8 µg/mL | R | > 8 µg/mL | R | ≤ 1 µg/mL | S | > 8 µg/mL | R | > 8 µg/mL | R | > 8 µg/mL | R | ≤ 1 µg/mL | S | > 8 µg/mL | R | 128 µg/mL (≈ 428 µM) | 32 µg/mL (≈ 107 µM) | MIC [10, 28]: > 256 µg/mL; MIC (E. coli ATCC35218; ATCC35218, MHB, 5 × 10^5 CFU/mL, 16 h, 37 °C, read-out: MIC): < 0.125 µg/mL; MIC (E. coli ATCC25922 [13]; ATCC25922, MHB, 5 × 10^5 CFU/mL, 16 h, 37 °C, read-out: MIC): < 0.125 µg/mL; MIC (NDM-1 E. coli XJ141026 [14]): 16 µg/mL (≈ 53.4 µM); MIC (NDM-1 E. coli XJ141015 [15]): 16 µg/mL (≈ 53.4 µM); MIC [16]: 128 µg/mL (≈ 428 µM); MIC (K. pneumoniae ATCC13883 [17]; ATCC13883, MHB, 5 × 10^5 CFU/mL, 16 h, 37 °C, read-out: MIC): < 0.125 µg/mL; MIC [18, 28]: 32 µg/mL (≈ 107 µM); FIC indices, all seven strains [19]: ≤ 1; effect of combination [19]: synergistic or additive; Km (NDM-1 [20]): 94 µM; Kcat (NDM-1 [21]): 130.40 ± 2.67 s⁻¹; Km (NDM-1 [21]): 104 µM; Vmax (NDM-1 [21]): 0.13 ± 0.03 µM/s; bacterial count ([22]; Imp 25 μM, replicate 1, listed as Imp): 2.00E+11 CFU/mL and 11.30 Log10(CFU/mL); bacterial count ([22]; Imp 25 μM, replicate 2, listed as Imp): 9.50E+11 CFU/mL and 11.98 Log10(CFU/mL); bacterial count ([22]; Imp 25 μM, replicate 3, listed as Imp): 7.41E+10 CFU/mL and 10.87 Log10(CFU/mL); bacterial count ([22]; Imp 25 μM, replicate 4, listed as Imp): 5.75E+11 CFU/mL and 11.76 Log10(CFU/mL)
2 | C[C@@H](O)[C@H]1C(=O)N2C(C(=O)O)=C(S[C@@H]3CN[C@H](C(=O)N(C)C)C3)[C@H](C)[C@H]12 [Meropenem] | > 8 µg/mL | R | > 8 µg/mL | R | > 8 µg/mL | R | ≤ 1 µg/mL | S | > 8 µg/mL | R | > 8 µg/mL | R | > 8 µg/mL | R | ≤ 1 µg/mL | S | > 8 µg/mL | R | 128 µg/mL (≈ 334 µM) | 64 µg/mL (≈ 167 µM) | Survival (number of mice) ([23]; Tha 0.1 mg/kg, Mem 10 mg/kg, Day 7): 4; survival rate ([23]; thanatin 0.1 mg/kg, meropenem 10 mg/kg): 30%; MIC [10]: > 256 µg/mL; MIC (E. coli ATCC35218; ATCC35218, 16 h): < 0.125 µg/mL; MIC (E. coli ATCC25922 [13]; ATCC25922, 16 h): < 0.125 µg/mL; MIC (NDM-1 E. coli XJ141026 [14]): 64 µg/mL (≈ 167 µM); MIC (NDM-1 E. coli XJ141015 [15]): 64 µg/mL (≈ 167 µM); MIC [16]: 128 µg/mL (≈ 334 µM); MIC (K. pneumoniae ATCC13883 [17]; ATCC13883, 16 h): < 0.125 µg/mL; MIC [18]: 128 µg/mL (≈ 334 µM); FIC indices, all seven strains [19]: ≤ 1; effect of combination [19]: synergistic or additive; bacterial count ([22]; Mem 18 μM, replicate 1, listed as Mem): 11.61 Log10(CFU/mL) and 4.04E+11 CFU/mL; bacterial count ([22]; Mem 18 μM, replicate 2, listed as Mem): 12.11 Log10(CFU/mL) and 1.30E+12 CFU/mL; bacterial count ([22]; Mem 18 μM, replicate 3, listed as Mem): 11.93 Log10(CFU/mL) and 8.52E+11 CFU/mL; bacterial count ([22]; Mem 18 μM, replicate 4, listed as Mem): 10.88 Log10(CFU/mL) and 7.65E+10 CFU/mL; MIC (NDM-1 E. coli XJ141026 [24]; in the presence of sub-MIC thanatin): 18 µM; MIC (NDM-1 E. coli XJ141026 [24]; meropenem alone): 144 µM
3 | B1 | – | – | – | – | – | – | – | – | – | – | – | – | – | – | – | – | – | – | – | – | inhibition of imipenem hydrolysis by purified NDM-1 (1 nM enzyme, 100 μM imipenem, 12 concentrations of thanatin), IC50 [25]: 3210 nM; Ki [26]: 2840 nM; Kd [27]: ~710 nM
